Data: patent publication US12351570B2 (MERCK PATENT GMBH, priority 2018, dated 2025)

Test system: MDA-MB-231 cells
Assay: Extracellular lactate production inhibition after 4 h, MDA-MB-231
Settings: Homo sapiens, MDA-MB-231

Compound | IC50
CCc1ccc(S(=O)(=O)Nc2ccccc2C#Cc2ccc(C(=O)O)nc2)c2ncccc12 [Compound 411, 5-{2-[2-(5-ethylquinoline-8-sulfonamido)phenyl]ethynyl}pyridine-2-carboxylic acid] | 100 to 1000 nM
CCc1ccc2cccnc2c1S(=O)(=O)Nc1ccccc1C#Cc1cnc(C(=O)O)c2ccccc12 [Compound 445, 4-{2-[2-(7-ethylquinoline-8-sulfonamido)phenyl]ethynyl}iso-quinoline-1-carboxylic acid] | 1000 to 100000 nM
Cc1cc(C#Cc2ccccc2NS(=O)(=O)c2cccc3ccccc23)ccc1C(=O)O [Compound 80, 2-methyl-4-{2-[2-(naphthalene-1-sulfonamido)phenyl]ethynyl}benzoic acid] | 100 to 1000 nM
O=C(O)c1ccc(C#Cc2ccccc2NS(=O)(=O)c2cccc3ncc(Cl)cc23)cc1 [Compound 272, 4-[2-(3-Chloro-quinoline-5-sulfonyl-amino)-phenylethynyl]-benzoic acid] | 1000 to 100000 nM
N#Cc1cc(C#Cc2ccccc2NS(=O)(=O)c2ccc3ccccc3c2)ccc1C(=O)O [Compound 24, 2-cyano-4-{2-[2-(naphthalene-2-sulfonamido)phenyl]ethynyl}benzoic acid] | 1000 to 100000 nM
COC(=O)c1cc(C)c(C#Cc2cc(F)ccc2NS(=O)(=O)c2c(C)ccc3cccnc23)cn1 [Compound 146, methyl 5-{2-[5-fluoro-2-(7-methylquinoline-8-sulfonamido)phenyl]ethynyl}-4-methylpyridine-2-carboxylate] | 10 to 100 nM
COc1cc(C#Cc2ccccc2NS(=O)(=O)c2ccc(OC)c3cccnc23)ccc1C(=O)O [Compound 230, 2-methoxy-4-{2-[2-(5-methoxyquinoline-8-sulfonamido)phenyl]ethynyl}benzoic acid] | 100 to 1000 nM
Cc1cc(C(=O)O)ncc1C#Cc1ccccc1NS(=O)(=O)c1ccc2ccccc2c1 [Compound 50, 4-methyl-5-{2-[2-(naphthalene-2-sulfonamido)phenyl]ethynyl}pyridine-2-carboxylic acid] | 1000 to 100000 nM
Cc1ccc2cccnc2c1S(=O)(=O)Nc1ccccc1C#Cc1ccc(C(=O)OCCOCCO)nc1 [Compound 409, 2-(2-hydroxyethoxy)ethyl 5-{2-[2-(7-methylquinoline-8-sulfonamido)phenyl]ethynyl}pyridine-2-carboxylate] | 100 to 1000 nM
O=C(O)c1ccc(C#Cc2ccccc2NS(=O)(=O)N2CCc3cccnc32)cn1 [Compound 145, 5-{2-[2-({1H,2H,3H-pyrrolo[2,3-b]pyridine-1-sulfonyl}amino)phenyl]-ethynyl}pyridine-2-carboxylic acid] | 1000 to 100000 nM
O=C(O)c1ccc(C#Cc2ccccc2CS(=O)(=O)c2ccc3ccccc3c2)cc1 [Compound 6, 4-(2-{2-[(naphthalene-2-sulfonyl)methyl]phenyl}ethynyl)benzoic acid] | 100 to 1000 nM
O=C(O)c1ccc(C#Cc2ccccc2NS(=O)(=O)c2cccc3cccnc23)cn1 [Compound 52, 5-{2-[2-(quinoline-8-sulfonamido)phenyl]ethynyl}pyridine-2-carboxylic acid] | 100 to 1000 nM
COCCOC(=O)c1cc(OC)c(C#Cc2ccccc2NS(=O)(=O)c2ccc(OC)c3cccnc23)cn1 [Compound 405, 2-methoxyethyl 4-methoxy-5-{2-[2-(5-methoxyquinoline-8-sulfonamido)phenyl]ethynyl}pyridine-2-carboxylate] | 100 to 1000 nM
Cc1cc(C#Cc2cc(F)ccc2NS(=O)(=O)c2ccc3c(c2)oc2ccccc23)cnc1C(=O)O [Compound 309, 5-[2-(5-fluoro-2-{8-oxatricyclo[7.4.0.0^2,7]trideca-1(9),2(7),3,5,10,12-hexaene-5-sulfonamido}phenyl)ethynyl]-3-methylpyridine-2-carboxylic acid] | 100 to 1000 nM
COC(=O)c1cc(C)c(C#Cc2ccccc2NS(=O)(=O)c2c(C)ccc3cccnc23)cn1 [Compound 137, methyl 4-methyl-5-{2-[2-(7-methylquinoline-8-sulfonamido)phenyl]ethynyl}pyridine-2-carboxylate] | 100 to 1000 nM
COc1ccc(S(=O)(=O)Nc2ccccc2C#Cc2ccc(C(=O)O)cc2)c2ccccc12 [Compound 8, 4-{2-[2-(4-methoxynaphthalene-1-sulfonamido)phenyl]ethynyl}benzoic acid] | 100 to 1000 nM
O=C(O)c1ccc(C#Cc2ccccc2NS(=O)(=O)c2cccc3c(Cl)cccc23)cn1 [Compound 289, 5-{2-[2-(5-chloronaphthalene-1-sulfonamido)phenyl]ethynyl}pyridine-2-carboxylic acid] | 100 to 1000 nM
O=C(O)c1ncc(C#Cc2ccccc2NS(=O)(=O)c2cccc3c(Cl)ccnc23)cc1Cl [Compound 323, 3-chloro-5-{2-[2-(4-chloroquinoline-8-sulfonamido)phenyl]ethynyl}pyridine-2-carboxylic acid] | 1000 to 100000 nM
COCCOC(=O)c1cc(OC)c(C#Cc2ccccc2NS(=O)(=O)c2c(C)ccc3cccnc23)cn1 [Compound 412, 2-methoxyethyl 4-methoxy-5-{2-[2-(7-methylquinoline-8-sulfonamido)phenyl]ethynyl}pyridine-2-carboxylate] | 10 to 100 nM

Compound | IC50
CCOc1ccc(C#Cc2ccc(C(=O)O)nc2)c(NS(=O)(=O)c2cccc3cccnc23)c1 [Compound 327, 5-[4-Ethoxy-2-(quinoline-8-sulfonylamino)-phenylethynyl]-pyridine-2-carboxylic acid] | 1000 to 100000 nM
COc1cc(C(=O)O)ncc1C#Cc1ccccc1NS(=O)(=O)c1ccc(OC)c(C)c1C [Compound 241, 4-methoxy-5-{2-[2-(4-methoxy-2,3-dimethylbenzenesulfonamido)-phenyl]ethynyl}pyridine-2-carboxylic acid] | 10 to 100 nM
O=C(O)c1ncc(C#Cc2ccccc2NS(=O)(=O)c2cccc3ccccc23)cc1C(F)(F)F [Compound 283, 5-{2-[2-(naphthalene-1-sulfon-amido)phenyl]ethynyl}-3-(trifluoro-methyl)pyridine-2-carboxylic acid] | 1000 to 100000 nM
Cc1ccccc1-c1cccc(S(=O)(=O)Nc2ccccc2C#Cc2ccc(C(=O)O)nc2)c1 [Compound 94, 5-[2-(2-{2′-methyl-[1,1′-biphenyl]-3-sulfonamido}phenyl)ethynyl]pyridine-2-carboxylic acid] | 1000 to 100000 nM
COc1cc(C(=O)NO)ncc1C#Cc1ccccc1NS(=O)(=O)c1ccc(OC)c2cccnc12 [Compound 224, N-hydroxy-4-methoxy-5-{2-[2-(5-methoxyquinoline-8-sulfonamido)phenyl-]ethynyl}pyridine-2-carboxamide] | 100 to 1000 nM
O=C(O)c1ccc(C#Cc2ccccc2NS(=O)(=O)c2c(Br)ccc3ccc(Cl)nc23)cn1 [Compound 315, 5-{2-[2-(7-bromo-2-chloroquinoline-8-sulfonamido)phenyl]ethynyl}pyridine-2-carboxylic acid] | 10 to 100 nM
COc1ccc(S(=O)(=O)Nc2ccc(Cl)cc2C#Cc2ccc(C(=O)O)nc2)c(C)c1C [Compound 387, 5-[5-Chloro-2-(4-methoxy-2,3-dimethyl-benzenesulfonylamino)-phenylethynyl]-pyridine-2-carboxylic acid] | 10 to 100 nM
COc1cc(C(=O)O)ncc1C#Cc1cc(Br)ccc1NS(=O)(=O)c1c(C)ccc2cccnc12 [Compound 352, 5-{2-[5-bromo-2-(7-methylquinoline-8-sulfonamido)phenyl]ethynyl}-4-methoxypyridine-2-carboxylic acid] | 1 to 10 nM
COc1ccc(S(=O)(=O)Nc2ccc(Br)cc2C#Cc2cnc(C(=O)O)c3ccccc23)c2ncccc12 [Compound 235, 4-{2-[5-bromo-2-(5-methoxyquinoline-8-sulfonamido)phenyl]ethynyl}isoquinoline-1-carboxylic acid] | 1 to 10 nM
Cc1ccccc1-c1cccc(S(=O)(=O)Nc2ccccc2C#Cc2ccc(C(=O)O)cc2)c1 [Compound 86, 4-[2-(2-{2′-methyl-[1,1′-biphenyl]-3-sulfonamido}phenyl)ethynyl]benzoic acid] | 1000 to 100000 nM
CCNc1cc(C#Cc2ccccc2NS(=O)(=O)c2ccc(OC)c(C)c2C)cnc1C(=O)O [Compound 379, 3-(ethylamino)-5-{2-[2-(4-methoxy-2,3-dimethylbenzenesulfonamido)phenyl]ethynyl}pyridine-2-carboxylic acid] | 10 to 100 nM
Cc1cc(C(=O)O)ncc1C#Cc1ccccc1NS(=O)(=O)c1cccc2c(N(C)C)ccnc12 [Compound 421, 5-[2-(4-Dimethylamino-quinoline-8-sulfonylamino)-phenylethynyl]-4-methyl-pyridine-2-carboxylic acid] | 100 to 1000 nM
COc1cc(C#Cc2ccccc2NS(=O)(=O)c2c(C)ccc3cccnc23)c(C)cc1C(=O)O [Compound 365, 2-methoxy-5-methyl-4-{2-[2-(7-methylquinoline-8-sulfonamido)-phenyl]ethynyl}benzoic acid] | 100 to 1000 nM
COc1ccc(S(=O)(=O)Nc2ccccc2C#Cc2cc(F)c(C(=O)O)c(F)c2)c2ccccc12 [Compound 27, 2,6-difluoro-4-{2-[2-(4-methoxynaphthalene-1-sulfonamido)phenyl]ethynyl}benzoic acid] | 1000 to 100000 nM
COc1cc(C#Cc2ccccc2NS(=O)(=O)c2cccc3ccccc23)cnc1C(=O)O [Compound 71, 3-methoxy-5-{2-[2-(naphthalene-1-sulfonamido)phenyl]ethynyl}pyridine-2-carboxylic acid] | 1000 to 100000 nM
Cc1cncc2c(S(=O)(=O)Nc3ccccc3C#Cc3ccc(C(=O)O)cc3)cccc12 [Compound 54, 4-{2-[2-(4-methylisoquinoline-8-sulfonamido)phenyl]ethynyl}benzoic acid] | 1000 to 100000 nM
CN(C)c1ccnc2c(S(=O)(=O)Nc3ccccc3C#Cc3ccc(C(=O)O)nc3)cccc12 [Compound 420, 5-[2-(4-Dimethylamino-quinoline-8-sulfonylamino)-phenylethynyl]-pyridine-2-carboxylic acid] | 1000 to 100000 nM
Cn1c2ccccc2c2ccc(S(=O)(=O)Nc3ccccc3C#Cc3ccc(C(=O)O)nc3)cc21 [Compound 150, 5-{2-[2-(9-methyl-9H-carbazole-2-sulfonamido)phenyl]ethynyl}pyridine-2-carboxylic acid] | 100 to 1000 nM
COc1cnc2cc(S(=O)(=O)Nc3ccccc3C#Cc3ccc(C(=O)O)nc3)ccc2n1 [Compound 91, 5-{2-[2-(2-methoxyquinoxaline-6-sulfonamido)phenyl]ethynyl}pyridine-2-carboxylic acid] | 1000 to 100000 nM
